# In PubChem BioAssay AID270 (DTP/NCI, 2004):
# Several values for one entry are separate records, joined by “and”; a condition that tells them apart may be missing. Identical values can stand only once. Results filed as inconclusive are left out. *1 amine or outer side, *2 acyl side, *3 side chain or, on linkers, in order; H or OH if unused. Where a SMILES comes first, the peptide text is derived from it. Bridges are numbered along the chain shown (N, C = ends). Roman numbers before positions name the chains, in order. [ ]: non-standard residue; d: D form. Actinocin(1to9) = Cc1c2oc3c(C)ccc(C(=O)[*:2])c3nc-2c(C(=O)[*:1])c(N)c1=O; NMeV = CN[CH](C(=O)O)C(C)C; Sar = CNCC(=O)O
# Tested on: BDF1 mice, s.c. Lewis lung carcinoma, T/C %
# Assay: NCI In Vivo Anticancer Drug Screen. Data for tumor model Lewis Lung Carcinoma (subcutaneous) in B6D2F1 (BDF1) mice
# Description: The antitumor activity of compounds was measured in mice bearing transplantable tumors. Survival or tumor size were measured and the results are expressed as the measurement made in the treated group (T) divided by the measurement made in the vehicle treated control group (C). The tumor model used in this assay is Lewis Lung Carcinoma (subcutaneous) in B6D2F1 (BDF1) mice
# [1] = endpoint: mean tumor weight, dose: 62.5 mg/kg/injection, schedule: Q01DX011 (ip), vehicle: saline, higher = larger tumour
# [2] = endpoint: mean tumor weight, dose: 125.0 mg/kg/injection, schedule: Q01DX011 (ip), vehicle: saline, higher = larger tumour
# [3] = endpoint: mean tumor weight, dose: 250.0 mg/kg/injection, schedule: Q01DX011 (ip), vehicle: saline, higher = larger tumour
# [4] = endpoint: mean tumor weight, dose: 100.0 mg/kg/injection, schedule: Q01DX011 (ip), vehicle: saline, higher = larger tumour
# [5] = endpoint: median survival time, dose: 12.5 mg/kg/injection, schedule: Q01DX009 (ip), vehicle: saline, higher = longer survival
# [6] = endpoint: median survival time, dose: 25.0 mg/kg/injection, schedule: Q01DX009 (ip), vehicle: saline, higher = longer survival
# [7] = endpoint: mean tumor weight, dose: 12.5 mg/kg/injection, schedule: Q01DX011 (ip), vehicle: saline, higher = larger tumour
# [8] = endpoint: mean tumor weight, dose: 25.0 mg/kg/injection, schedule: Q01DX011 (ip), vehicle: saline, higher = larger tumour
# [9] = endpoint: mean tumor weight, dose: 50.0 mg/kg/injection, schedule: Q01DX011 (ip), vehicle: saline, higher = larger tumour
# [10] = endpoint: median survival time, dose: 100.0 mg/kg/injection, schedule: Q01DX009 (ip), vehicle: olive oil, sesame oil, peanut oil, higher = longer survival
structure (smiles),measurement,setting,value
CCC(c1ccc(O)cc1)C(CC)c1ccc(OC)cc1 (configuration not stated),T/C,"endpoint: mean tumor weight, dose: 4.0 mg/kg/injection, schedule: Q01DX011 (sc), vehicle: steriod suspending solution, higher = larger tumour",60 % of control
same,T/C,"endpoint: mean tumor weight, dose: 8.0 mg/kg/injection, schedule: Q01DX011 (sc), vehicle: steriod suspending solution, higher = larger tumour",36 % of control
same,T/C,"endpoint: mean tumor weight, dose: 16.0 mg/kg/injection, schedule: Q01DX011 (sc), vehicle: steriod suspending solution, higher = larger tumour",33 % of control
same,T/C,"endpoint: mean tumor weight, dose: 31.3 mg/kg/injection, schedule: Q01DX011 (ip), vehicle: saline, higher = larger tumour",23 % of control
same,T/C,"endpoint: mean tumor weight, dose: 32.0 mg/kg/injection, schedule: Q01DX011 (sc), vehicle: steriod suspending solution, higher = larger tumour",16 % of control
same,T/C,[1],21 % of control
same,T/C,[2],16 % of control
same,T/C,[3],13 % of control
C/C=C(\C)c1cc(=O)c2c(C)cc3c(c2o1)C(=O)c1c(O)c(C2CC(C)(N(C)C)C(O)C(C)O2)cc(C2CC(N(C)C)C(O)C(C)O2)c1C3=O (configuration not stated),T/C,"endpoint: median survival time, dose: 0.5 mg/kg/injection, schedule: Q01DX009 (ip), vehicle: Klucel (hydroxypropylcellulose) (HPC), higher = longer survival",100 % of control
same,T/C,"endpoint: median survival time, dose: 2.0 mg/kg/injection, schedule: Q01DX009 (ip), vehicle: Klucel (hydroxypropylcellulose) (HPC), higher = longer survival",96 % of control
CCCCCCCCCCCCCS,T/C,"endpoint: mean tumor weight, dose: 66.0 mg/kg/injection, schedule: Q01DX011 (ip), vehicle: saline, higher = larger tumour",106 % of control
same,T/C,[4],77 % of control
same,T/C,"endpoint: mean tumor weight, dose: 150.0 mg/kg/injection, schedule: Q01DX011 (ip), vehicle: saline, higher = larger tumour",91 % of control
CCCCn1ccnc1C,T/C,"endpoint: median survival time, dose: 1.56 mg/kg/injection, schedule: Q01DX009 (ip), vehicle: saline, higher = longer survival",112 % of control
same,T/C,"endpoint: median survival time, dose: 3.13 mg/kg/injection, schedule: Q01DX009 (ip), vehicle: saline, higher = longer survival",99 % of control
same,T/C,[5],99 % of control
same,T/C,[6],119 % of control
same,T/C,"endpoint: median survival time, dose: 50.0 mg/kg/injection, schedule: Q01DX009 (ip), vehicle: saline, higher = longer survival",98 % of control
CC1(C)N=C(N)N=C(N)N1c1ccc(F)c(C(F)(F)F)c1,T/C,[5],121 % of control
same,T/C,[6],111 % of control
CS(=O)(=O)OC[C@@H](O)[C@@H](O)COS(C)(=O)=O,T/C,[1],71 % of control
same,T/C,[3],115 % of control
same,T/C,"endpoint: mean tumor weight, dose: 500.0 mg/kg/injection, schedule: Q01DX011 (ip), vehicle: saline, higher = larger tumour",94 % of control
same,T/C,"endpoint: mean tumor weight, dose: 750.0 mg/kg/injection, schedule: Q01DX011 (ip), vehicle: other, higher = larger tumour",100 % of control
same,T/C,"endpoint: mean tumor weight, dose: 1000.0 mg/kg/injection, schedule: Q01DX011 (ip), vehicle: other, higher = larger tumour",98 % of control
CCN(CC)Cc1c(O)ccc2c3c(c(=O)oc12)CCCC3,T/C,"endpoint: median survival time, dose: 29.0 mg/kg/injection, schedule: Q01DX009 (ip), vehicle: Klucel (hydroxypropylcellulose) (HPC), higher = longer survival",99 % of control
same,T/C,"endpoint: median survival time, dose: 58.0 mg/kg/injection, schedule: Q01DX009 (ip), vehicle: Klucel (hydroxypropylcellulose) (HPC), higher = longer survival",94 % of control
OC(COc1cccc2ccccc12)CN(CCCl)CCCl (configuration not stated),T/C,"endpoint: median survival time, dose: 1.25 mg/kg/injection, schedule: Q01DX009 (ip), vehicle: Klucel (hydroxypropylcellulose) (HPC), higher = longer survival",94 % of control and 104 % of control
same,T/C,"endpoint: median survival time, dose: 2.5 mg/kg/injection, schedule: Q01DX009 (ip), vehicle: Klucel (hydroxypropylcellulose) (HPC), higher = longer survival",100 % of control and 101 % of control
same,T/C,"endpoint: median survival time, dose: 5.0 mg/kg/injection, schedule: Q01DX009 (ip), vehicle: Klucel (hydroxypropylcellulose) (HPC), higher = longer survival",103 % of control
O=NN(CCCl)C(=O)Nc1ccc(CCCl)cc1,T/C,"endpoint: mean tumor weight, dose: 1.5 mg/kg/injection, schedule: Q01DX001 (ip), vehicle: carboxymethylcellulose (CMC), higher = larger tumour",91 % of control
same,T/C,"endpoint: mean tumor weight, dose: 3.0 mg/kg/injection, schedule: Q01DX001 (ip), vehicle: carboxymethylcellulose (CMC), higher = larger tumour",106 % of control
same,T/C,"endpoint: mean tumor weight, dose: 6.0 mg/kg/injection, schedule: Q01DX001 (ip), vehicle: carboxymethylcellulose (CMC), higher = larger tumour",90 % of control
same,T/C,"endpoint: mean tumor weight, dose: 12.0 mg/kg/injection, schedule: Q01DX001 (ip), vehicle: carboxymethylcellulose (CMC), higher = larger tumour",52 % of control
"CCC(C)C1NC(=O)C(NC(=O)c2c3nc4c(C(=O)NC5C(=O)NC(C(C)C)C(=O)N6CCCC6C(=O)N(C)CC(=O)N(C)C(C(C)C)C(=O)OC5C)ccc(C)c4oc-3c(C)c(=O)c2N)C(C)OC(=O)C(C(C)C)N(C)C(=O)CN(C)C(=O)C2CCCN2C1=O (configuration not stated) (I: TIP[Sar][NMeV] / II: TVP[Sar][NMeV]; ester I:1-I:C, II:1-II:C; linker I:N-II:N via Actinocin(1to9); configuration not given here)",T/C,"endpoint: median survival time, dose: 12.5 micrograms/kg/injection, schedule: Q01DX009 (ip), vehicle: water, higher = longer survival",111 % of control
same,T/C,"endpoint: median survival time, dose: 25.0 micrograms/kg/injection, schedule: Q01DX009 (ip), vehicle: water, higher = longer survival",112 % of control
same,T/C,"endpoint: median survival time, dose: 50.0 micrograms/kg/injection, schedule: Q01DX009 (ip), vehicle: water, higher = longer survival",112 % of control
same,T/C,"endpoint: median survival time, dose: 75.0 micrograms/kg/injection, schedule: Q04DX003 (ip), vehicle: water, higher = longer survival",100 % of control
same,T/C,"endpoint: median survival time, dose: 150.0 micrograms/kg/injection, schedule: Q04DX003 (ip), vehicle: water, higher = longer survival",108 % of control
same,T/C,"endpoint: median survival time, dose: 300.0 micrograms/kg/injection, schedule: Q04DX003 (ip), vehicle: water, higher = longer survival",154 % of control
CC(=O)Nc1ccc2nc3ccc(NC(C)=O)cc3[n+](-c3ccccc3)c2c1,T/C,[7],61 % of control
same,T/C,[8],79 % of control
same,T/C,[9],59 % of control
CCC(CCC(C)C1CCC2C3CC=C4CC(OC(=O)CCC(=O)O)CCC4(C)C3CCC12C)C(C)C (configuration not stated),T/C,"endpoint: mean tumor weight, dose: 200.0 mg/kg/injection, schedule: Q01DX011 (ip), vehicle: water, higher = larger tumour",63 % of control
same,T/C,"endpoint: mean tumor weight, dose: 400.0 mg/kg/injection, schedule: Q01DX011 (ip), vehicle: water, higher = larger tumour",38 % of control
same,T/C,"endpoint: mean tumor weight, dose: 450.0 mg/kg/injection, schedule: Q01DX011 (ip), vehicle: water, higher = larger tumour",59 % of control
same,T/C,"endpoint: mean tumor weight, dose: 600.0 mg/kg/injection, schedule: Q01DX011 (ip), vehicle: water, higher = larger tumour",31 % of control
CCOC(N)=O,T/C,"endpoint: mean tumor weight, dose: 60.0 mg/kg/injection, schedule: Q01DX011 (ip), vehicle: saline, higher = larger tumour",119 % of control
same,T/C,[4],90 % of control
same,T/C,[2],123 % of control
same,T/C,"endpoint: mean tumor weight, dose: 200.0 mg/kg/injection, schedule: Q01DX011 (ip), vehicle: saline, higher = larger tumour",60 % of control and 67 % of control and 69 % of control
same,T/C,[3],62 % of control
same,T/C,"endpoint: mean tumor weight, dose: 400.0 mg/kg/injection, schedule: Q01DX011 (ip), vehicle: saline, higher = larger tumour",33 % of control and 41 % of control and 56 % of control
same,T/C,"endpoint: mean tumor weight, dose: 600.0 mg/kg/injection, schedule: Q01DX011 (ip), vehicle: saline, higher = larger tumour",38 % of control
O=c1n(CCCl)c(=O)n(CCCl)c(=O)n1CCCl,T/C,"endpoint: mean tumor weight, dose: 25.0 mg/kg/injection, schedule: Q01DX011 (ip), vehicle: other, higher = larger tumour",121 % of control
same,T/C,"endpoint: mean tumor weight, dose: 50.0 mg/kg/injection, schedule: Q01DX011 (ip), vehicle: other, higher = larger tumour",116 % of control
same,T/C,"endpoint: mean tumor weight, dose: 100.0 mg/kg/injection, schedule: Q01DX011 (ip), vehicle: other, higher = larger tumour",65 % of control
same,T/C,"endpoint: mean tumor weight, dose: 200.0 mg/kg/injection, schedule: Q01DX011 (ip), vehicle: other, higher = larger tumour",113 % of control
same,T/C,"endpoint: mean tumor weight, dose: 400.0 mg/kg/injection, schedule: Q01DX011 (ip), vehicle: other, higher = larger tumour",108 % of control
Nc1ncnc2nc[nH]c12,T/C,[7],101 % of control
same,T/C,[8],104 % of control
same,T/C,[9],84 % of control
same,T/C,[4],43 % of control and 49 % of control
COc1cccc(/C=N/NC(=O)c2ccccc2N2CCCC2)c1O,T/C,[10],90 % of control
CCCCn1cnc2c(=S)nc(N)[nH]c21,T/C,"endpoint: mean tumor weight, dose: 1.0 mg/kg/injection, schedule: Q01DX011 (ip), vehicle: other, higher = larger tumour",73 % of control
same,T/C,"endpoint: mean tumor weight, dose: 2.0 mg/kg/injection, schedule: Q01DX011 (ip), vehicle: other, higher = larger tumour",59 % of control
same,T/C,"endpoint: mean tumor weight, dose: 4.0 mg/kg/injection, schedule: Q01DX011 (ip), vehicle: other, higher = larger tumour",39 % of control
same,T/C,"endpoint: mean tumor weight, dose: 8.0 mg/kg/injection, schedule: Q01DX011 (ip), vehicle: other, higher = larger tumour",58 % of control and 63 % of control
same,T/C,"endpoint: mean tumor weight, dose: 16.0 mg/kg/injection, schedule: Q01DX011 (ip), vehicle: other, higher = larger tumour",61 % of control
same,T/C,"endpoint: mean tumor weight, dose: 32.0 mg/kg/injection, schedule: Q01DX011 (ip), vehicle: other, higher = larger tumour",34 % of control
O=C(O)C(=O)c1ccc(-c2ccccc2)cc1,T/C,"endpoint: mean tumor weight, dose: 35.0 mg/kg/injection, schedule: Q01DX011 (ip), vehicle: methylcellulose (MC), higher = larger tumour",82 % of control
same,T/C,"endpoint: mean tumor weight, dose: 50.0 mg/kg/injection, schedule: Q01DX011 (ip), vehicle: methylcellulose (MC), higher = larger tumour",68 % of control
same,T/C,"endpoint: mean tumor weight, dose: 75.0 mg/kg/injection, schedule: Q01DX011 (ip), vehicle: methylcellulose (MC), higher = larger tumour",52 % of control
same,T/C,"endpoint: mean tumor weight, dose: 110.0 mg/kg/injection, schedule: Q01DX011 (ip), vehicle: methylcellulose (MC), higher = larger tumour",52 % of control
COc1cccc(/C=N/C(=S)NC2(C)C3CCC(C3)C2(C)C)c1O (configuration not stated),T/C,"endpoint: median survival time, dose: 6.25 mg/kg/injection, schedule: Q01DX009 (ip), vehicle: olive oil, sesame oil, peanut oil, higher = longer survival",98 % of control
same,T/C,"endpoint: median survival time, dose: 12.5 mg/kg/injection, schedule: Q01DX009 (ip), vehicle: olive oil, sesame oil, peanut oil, higher = longer survival",94 % of control
same,T/C,[10],90 % of control
